In ChEMBL document CHEMBL1201862, “PubChem BioAssay data set” (2004):
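Protocol summary: plate cells (96-well), add compound at 5 concentrations, incubate 48 h, interpolate endpoints linearly. GI50 marks 50% less growth.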 Activity calls are given as the source filed them. No stated cut-off is given here; in the data, active = GI50 up to about 1.1 µM and inactive = higher.

Legend:
Experiment in all cases: NCI anticancer screen, dose series, 48 h
U-251 = test system: U-251
SK-MEL-5 = test system: SK-MEL-5
Hs-578T = test system: Hs-578T
HCT-15 = test system: HCT-15
SK-MEL-28 = test system: SK-MEL-28
IGROV-1 = test system: IGROV-1
SF-268 = test system: SF-268
HOP-92 = test system: HOP-92
SNB-19 = test system: SNB-19
NCI-H460 = test system: NCI-H460
LOX IMVI = test system: LOX IMVI
UACC-62 = test system: UACC-62
T47D = test system: T47D
NCI/ADR-RES = test system: NCI/ADR-RES
HCC 2998 = test system: HCC 2998
CCRF-CEM = test system: CCRF-CEM
DU-145 = test system: DU-145
ACHN = test system: ACHN
NCI-H226 = test system: NCI-H226
HCT-116 = test system: HCT-116
OVCAR-8 = test system: OVCAR-8
TK-10 = test system: TK-10
NCI-H522 = test system: NCI-H522
HL-60 = test system: HL-60
786-0 = test system: 786-0
A498 = test system: A498
HT-29 = test system: HT-29
PC-3 = test system: PC-3
HOP-62 = test system: HOP-62
UACC-257 = test system: UACC-257
EKVX = test system: EKVX
RPMI-8226 = test system: RPMI-8226
SK-MEL-2 = test system: SK-MEL-2
NCI-H23 = test system: NCI-H23
MDA-MB-435 = test system: MDA-MB-435
MDA-N = test system: MDA-N
OVCAR-4 = test system: OVCAR-4
UO-31 = test system: UO-31
BT-549 = test system: BT-549
SF-295 = test system: SF-295
MDA-MB-231 = test system: MDA-MB-231
MCF7 = test system: MCF7
SK-OV-3 = test system: SK-OV-3
OVCAR-5 = test system: OVCAR-5
SF-539 = test system: SF-539
A549 = test system: A549
CAKI-1 = test system: CAKI-1
COLO 205 = test system: COLO 205
M14 = test system: M14
SN12C = test system: SN12C
OVCAR-3 = test system: OVCAR-3
SW-620 = test system: SW-620
MOLT-4 = test system: MOLT-4
SR = test system: SR
Malme-3M = test system: Malme-3M
KM12 = test system: KM12
RXF 393 = test system: RXF 393
K562 = test system: K562
SNB-75 = test system: SNB-75

Measured: GI50

CC1=CC(=O)C2=C(C)CCC3C(C)C(=O)OC3C12 (stereo not given)
> 100 µM: HCT-15
inactive: U-251 > 100 µM | SK-MEL-5 > 100 µM | Hs-578T > 100 µM | SK-MEL-28 > 100 µM | IGROV-1 > 100 µM | SF-268 > 100 µM | HOP-92 > 100 µM | SNB-19 > 100 µM | NCI-H460 > 100 µM | LOX IMVI > 100 µM | UACC-62 > 100 µM | T47D > 100 µM | NCI/ADR-RES > 100 µM | HCC 2998 > 100 µM | CCRF-CEM > 100 µM | DU-145 > 100 µM | ACHN > 100 µM | NCI-H226 > 100 µM | HCT-116 > 100 µM | OVCAR-8 > 100 µM | TK-10 > 100 µM | NCI-H522 > 100 µM | HL-60 > 100 µM | 786-0 > 100 µM | A498 > 100 µM | HT-29 > 100 µM | PC-3 > 100 µM | HOP-62 > 100 µM | UACC-257 > 100 µM | EKVX > 100 µM | RPMI-8226 > 100 µM | SK-MEL-2 > 100 µM | NCI-H23 > 100 µM | MDA-MB-435 > 100 µM | MDA-N > 100 µM | OVCAR-4 > 100 µM | UO-31 > 100 µM | BT-549 > 100 µM | SF-295 > 100 µM | MDA-MB-231 > 100 µM | MCF7 > 100 µM | SK-OV-3 > 100 µM | OVCAR-5 > 100 µM | SF-539 > 100 µM | A549 > 100 µM | CAKI-1 > 100 µM | COLO 205 > 100 µM | M14 > 100 µM | SN12C > 100 µM | OVCAR-3 > 100 µM | SW-620 > 100 µM | MOLT-4 > 100 µM | SR 48 µM | Malme-3M > 100 µM | KM12 > 100 µM | RXF 393 > 100 µM

CCN(CC)c1ccc(C2NC(=O)c3ccccc3N2)cc1 (stereo not given)
active: CCRF-CEM 0.641 µM | HL-60 0.522 µM | MDA-MB-435 0.698 µM | MDA-N 0.847 µM | SR 0.557 µM
1.13 µM: HCT-15
inactive: U-251 4.34 µM | SK-MEL-5 1.15 µM | Hs-578T 9.64 µM | SK-MEL-28 > 100 µM | IGROV-1 5.24 µM | SF-268 8.57 µM | HOP-92 3.05 µM | SNB-19 17.1 µM | K562 1.27 µM | NCI-H460 1.21 µM | LOX IMVI 2.95 µM | UACC-62 3.1 µM | T47D > 100 µM | NCI/ADR-RES 1.85 µM | HCC 2998 2.19 µM | DU-145 1.48 µM | ACHN 7.03 µM | NCI-H226 2.98 µM | HCT-116 1.48 µM | OVCAR-8 3.62 µM | TK-10 > 100 µM | NCI-H522 14.8 µM | 786-0 2.99 µM | A498 4.95 µM | HT-29 2.31 µM | PC-3 3.32 µM | HOP-62 5.7 µM | UACC-257 > 100 µM | EKVX 5.24 µM | RPMI-8226 3.37 µM | NCI-H23 2.77 µM | OVCAR-4 > 100 µM | UO-31 > 24.5 µM | BT-549 > 100 µM | SF-295 3.01 µM | MDA-MB-231 1.88 µM | MCF7 3.73 µM | SK-OV-3 3.74 µM | OVCAR-5 > 22 µM | SF-539 2.71 µM | A549 3.27 µM | CAKI-1 2.82 µM | COLO 205 1.63 µM | M14 2.93 µM | SN12C 9.98 µM | OVCAR-3 2.82 µM | SW-620 1.5 µM | MOLT-4 3.55 µM | Malme-3M > 28.4 µM | KM12 2.15 µM | RXF 393 7.52 µM

N#CCOc1ccc(/C=C/C(=O)c2ccc(Cl)cc2)cc1
inactive: U-251 25.8 µM | SK-MEL-5 20.9 µM | Hs-578T 18.2 µM | SK-MEL-28 33.7 µM | IGROV-1 22 µM | SF-268 33.9 µM | HOP-92 32 µM | SNB-19 22.8 µM | K562 26 µM | NCI-H460 27.2 µM | LOX IMVI 15.6 µM | UACC-62 19 µM | T47D 19.9 µM | NCI/ADR-RES 23.9 µM | HCC 2998 31.7 µM | CCRF-CEM 26.5 µM | DU-145 66.4 µM | ACHN 34.8 µM | NCI-H226 > 100 µM | HCT-116 6.65 µM | OVCAR-8 32.1 µM | TK-10 28.5 µM | NCI-H522 > 10 µM | HL-60 28.5 µM | 786-0 22.6 µM | A498 20.8 µM | SNB-75 19.5 µM | HT-29 50.6 µM | PC-3 43.2 µM | HOP-62 25.2 µM | UACC-257 32 µM | EKVX 39.6 µM | RPMI-8226 23.1 µM | NCI-H23 24.8 µM | MDA-MB-435 28.8 µM | MDA-N 32.4 µM | OVCAR-4 34.9 µM | UO-31 32.8 µM | BT-549 3.62 µM | SF-295 21.4 µM | MDA-MB-231 25.4 µM | MCF7 11.4 µM | SK-OV-3 18.4 µM | OVCAR-5 > 100 µM | SF-539 19.2 µM | A549 39.7 µM | M14 37 µM | SN12C 39.8 µM | OVCAR-3 31.8 µM | SW-620 22.1 µM | MOLT-4 19.6 µM | SR 37.5 µM | Malme-3M 28 µM | KM12 22.4 µM | RXF 393 17.5 µM
77.6 µM: HCT-15

CCOC(=O)c1nc2cc(C(F)(F)F)ccc2nc1Nc1ccc(OC)cc1
> 100 µM: HCT-15
inactive: SK-MEL-5 > 100 µM | Hs-578T 54.1 µM | SK-MEL-28 > 100 µM | IGROV-1 > 100 µM | SF-268 > 100 µM | HOP-92 36.6 µM | SNB-19 54.3 µM | LOX IMVI 41.5 µM | UACC-62 > 100 µM | T47D 95.1 µM | NCI/ADR-RES > 100 µM | HCC 2998 > 100 µM | DU-145 > 100 µM | ACHN 86.9 µM | NCI-H226 > 100 µM | HCT-116 46.1 µM | OVCAR-8 > 100 µM | TK-10 > 100 µM | NCI-H522 > 100 µM | HL-60 > 100 µM | 786-0 47.4 µM | A498 > 100 µM | SNB-75 55.6 µM | HT-29 > 100 µM | PC-3 > 100 µM | HOP-62 42.5 µM | UACC-257 > 100 µM | EKVX > 100 µM | RPMI-8226 > 100 µM | SK-MEL-2 > 100 µM | NCI-H23 > 100 µM | MDA-MB-435 > 100 µM | MDA-N > 100 µM | UO-31 > 100 µM | BT-549 > 100 µM | SF-295 81.3 µM | MDA-MB-231 61.7 µM | MCF7 > 100 µM | OVCAR-5 > 100 µM | SF-539 > 100 µM | A549 > 100 µM | CAKI-1 > 100 µM | COLO 205 47.4 µM | M14 > 100 µM | SN12C > 100 µM | OVCAR-3 > 100 µM | SW-620 > 100 µM | MOLT-4 > 100 µM | SR > 100 µM | KM12 > 100 µM | RXF 393 56.1 µM

CN1CC2=C(OC(N)=C(C#N)C2c2cccs2)/C(=C/c2cccs2)C1 (stereo not given)
15.5 µM: HCT-15
active: T47D 0.202 µM | MCF7 0.223 µM
inactive: U-251 8.59 µM | SK-MEL-5 3.41 µM | Hs-578T > 100 µM | SK-MEL-28 > 57.9 µM | IGROV-1 15.5 µM | SF-268 13.5 µM | HOP-92 2.09 µM | SNB-19 > 59.3 µM | K562 10.3 µM | NCI-H460 17.7 µM | LOX IMVI 13.9 µM | UACC-62 19.7 µM | NCI/ADR-RES 3.41 µM | HCC 2998 25.6 µM | CCRF-CEM 5.52 µM | DU-145 23.4 µM | ACHN 2.43 µM | NCI-H226 > 74.1 µM | HCT-116 8.43 µM | OVCAR-8 6.44 µM | TK-10 > 51.2 µM | NCI-H522 7.94 µM | HL-60 1.81 µM | 786-0 31.3 µM | A498 21.8 µM | HT-29 12.7 µM | PC-3 5.31 µM | HOP-62 19.3 µM | UACC-257 9.53 µM | EKVX 6.01 µM | RPMI-8226 4.45 µM | SK-MEL-2 > 35.1 µM | NCI-H23 7.18 µM | MDA-MB-435 6.1 µM | MDA-N 5.64 µM | OVCAR-4 5.52 µM | UO-31 34 µM | BT-549 5.62 µM | SF-295 11.6 µM | MDA-MB-231 > 49 µM | SK-OV-3 55.7 µM | OVCAR-5 > 84.9 µM | SF-539 48.8 µM | A549 8.3 µM | CAKI-1 38.8 µM | COLO 205 9.08 µM | M14 13.1 µM | SN12C 34.8 µM | OVCAR-3 15.8 µM | SW-620 42.8 µM | MOLT-4 2.43 µM | SR 4.17 µM | Malme-3M 8.65 µM | KM12 9.12 µM | RXF 393 10.1 µM
